The source of these data is article PMC12670405, “Second-Generation AURKA-Targeting PROTACs: Structural Optimization toward in Vivo Degradation in Neuroblastoma” (Journal of Medicinal Chemistry, 2025).

What all share (assay): LC-MS/MS proteome profiling
Holding throughout (format): cell-based, Homo sapiens

One test relates to ZNF337. The settings on record: SK5527 vs DMSO (24h). As for the experimental part: (§1) Analysis of the mass spectrometry data was performed in DiaNN (version 1.9). Precursor false discovery rate was set at 1%. Spectra were searched against the Homo sapiens protein sequences in the Uniprot database (database release version of 2024_01), containing 20,597 sequences (www.uniprot.org) and the imbedded protein contaminant list. Enzyme specificity was set as C-terminal to arginine and lysine, also allowing cleavage at proline bonds with a maximum of 2 missed cleavages. Variable modifications were set to oxidation of methionine residues and acetylation of protein N-termini while fixed modification was set to carbamidomethylation of cystein residues. Matching between runs was enabled. Mainly default settings were used, except for the addition of a 400-900 m/z precursor mass range filter and MS1 and MS2 mass tolerance was set to 10 and 20 ppm respectively.
(§2) Further data analysis of the results was performed with an in-house script in the R programming language.
(§3) Protein expression matrices were prepared as follows: the DIA-NN main report output table was filtered at a precursor and protein library q-value cut-off of 1 % and only proteins identified by at least one proteotypic peptide were retained. After pivoting into a wide format, iBAQ intensity columns were then added to the matrix using the DIAgui’s R package get_IBAQ function. PG MaxLFQ intensities were log2 transformed and replicate samples were grouped. Proteins with less than 3 valid values in at least one group were removed and missing values were imputed from a normal distribution centered around the detection limit (package DEP) leading to a list of 7,759 quantified proteins in the experiment, used for further data analysis. To compare protein abundance […]
(§4) 24h MK-5108 vs 24h DMSO sample groups), statistical testing for differences between two group means was performed, using the package limma. Statistical significance for differential regulation was set to a false discovery rate (FDR) of < 0.05 and |log2FC| = 2.

In the next test the test system is ZNF7. The settings on record: SK5527 vs DMSO (24h). As for the experimental part: as §1, §2, §3, §4
The test system of a further test is PLCXD1. The settings on record: SK5527 vs DMSO (24h). On the procedure:
as §1, §2, §3, §4

The subject of another test is JMJD1C. The settings on record: SK5527 vs DMSO (24h). As for the experimental part: as §1, §2, §3, §4
The next test relates to ABCA3. As to conditions: SK5527 vs DMSO (24h). On the procedure:
as §1, §2, §3, §4

The subject of the next test is ZSCAN22. The settings on record: SK5527 vs DMSO. On the procedure:
as §1, §2, §3, §4

The test system of a further test is HAND2. The settings on record: SK5527 vs DMSO (24h). As for the experimental part:
as §1, §2, §3, §4

The next test deals with ARHGEF18. The settings on record: SK5527 vs DMSO (24h). On the procedure:
as §1, §2, §3, §4

The test system of another test is TROAP. As to conditions: SK5527 vs DMSO. As for the experimental part: as §1, §2, §3, §4
The next test concerns RSF1. As to conditions: SK5527 vs DMSO (24h). As for the experimental part: as §1, §2, §3, §4
The subject of another test is SRSF10. As to conditions: SK5527 vs DMSO (24h). On the procedure:
as §1, §2, §3, §4

The subject of the next test is SMTN. As to conditions: SK5527 vs DMSO (24h). On the procedure:
as §1, §2, §3, §4

The test system of the next test is SP2. The settings on record: SK5527 vs DMSO (24h). On the procedure: as §1, §2, §3, §4
The next test relates to SIPA1L3. The settings on record: SK5527 vs DMSO (24h). On the procedure: as §1, §2, §3, §4

Molecules are shown by their SMILES.

With `Cc1cc(Nc2ccc(F)c(CC3(C(=O)N4CCC(F)(CN5CCN(c6ccc(N7CCC(=O)NC7=O)cn6)CC5)CC4)CCN(Cc4cccc(Cl)c4F)CC3)n2)n[nH]1` [SK5527], the “logFC ZNF337” value with ZNF337 was determined as 2.22. The “logFC ZNF7” value in the test on ZNF7 is reported as -2.38. In addition, in the test on PLCXD1, the “logFC PLCXD1” value was -2.06. The “logFC JMJD1C” value in the test with JMJD1C worked out at 2.49. Moreover, in the test with ABCA3, the “logFC ABCA3” value is on record as -4.59. In the test on ZSCAN22, the “logFC ZSCAN22” value is reported as -2.09. The “logFC HAND2” value with HAND2 is recorded as -3.26. In addition, in the test with ARHGEF18, the “logFC ARHGEF18” value is listed as -5.19. Further, in the test on TROAP, the “logFC TROAP” value was determined as 2.33. Further, the “logFC RSF1” value with RSF1 is listed as 2.45. In the test on SRSF10, the “logFC SRSF10” value is given as 2.01. Besides, in the test on SMTN, the “logFC SMTN” value amounted to 2.05. For the same molecule, in the test with SP2, the “logFC SP2” value is listed as -2.23. Also, the “logFC SIPA1L3” value in the test on SIPA1L3 is -3.26.
